Where “and” joins values, the source holds several entries; their conditions need not be identical. Equal values may be shown once. Entries after “also recorded” stand apart in the source; their conditions may differ.
Experiments:
[1] = tested on: SL13 cells; experiment: ADDIT assay (addition of de novo initiated telomeres; modified STELA with PacBio sequencing or Southern blot); format: cell-based, mouse; conditions: for de novo telomere addition / telomere elongation in ADDIT assay (in words): PacBio sequencing of STELA products, compared to controls; for percentage of CCS reads with de novo telomere addition (mean and SEM): SL13 cells pretreated prior to doxycycline, 10 μM KU55933, 3 μM Olaparib, 100 nM siATM, multiple experiments
Description: To critically access the role of ATM, as well as other potential telomere length regulators, an assay was developed that measures telomere repeat addition in cells over 48 hr. CAST/EiJ mouse fibroblast cell line was engineered to (SL13) contain a conditional mTR allele and a modified chromosome 4 (chr4) with an internal 480 bp telomere ‘seed’ sequence followed by a unique I-Sce1 endonuclease cut site (FIG. 5 and see Experimental Procedures). The internal telomere ‘seed’ sequence can be conditionally exposed by I-Sce1 endonuclease cleavage (FIG. 1A) and then be elongated by telomerase in a manner similar to de novo telomere addition shown to occur in yeast (Diede and Gottschling, 1999, Cell 99, 723-733).
To better detect the telomere elongation, the single telomere length analysis (STELA) assay was modified (Baird et al., 2004, Hum Mol Genet 13, 1515-1524), to measure telomere length at the in vivo cut chr4. The linker, ‘telorette’, was ligated to the telomere and PCR amplified the telomere using the ‘teltail’ primer and an internal primer in the hygromycin resistance (HYG) sequence on the engineered chromosome (FIG. 1B). To determine the un-extended cut chromosome length in vitro, a different linker was designed, ‘IScerette’, which anneals to the 4-nt 3′ overhang created by the I-Sce1 endonuclease (FIG. 1B). PCR using the forward primers, F1 or F2, and the teltail generated products of predicted size on a Southern blot (data not shown).
To further verify telomere addition had occurred, the PCR products were sequenced with Pacific Biosciences (PacBio®) sequencing. PacBio® produces long sequence reads that allowed us to determine telomere length. While sequencing errors, predominantly point insertions and deletions, occurred as expected, the telomere repeats were easily recognizable. To assure products were full length, the PacBio® reads were filtered to examine only those that had the unique HYG sequence followed by the seed telomere repeat sequence and also had the ‘teltail’ primer sequence (FIG. 6). […] The I-Sce1 site is shown boxed (FIG. 1C). Three regions of variant telomere repeats were noted, evident as darker stripes in the aligned reads, that were present in the original SL13 clone, and served as useful sequence reference points (FIG. 1C). If there were degradation past these variants and then new TTAGGG (SEQ ID NO: 100) repeat synthesis in vivo, these landmarks would be removed.
The sequence length distribution in the ADDIT assay represents telomere elongation, incomplete telomere replication and in vivo end resection (as well as PacBio® sequencing errors).
Cell lines were grown in DMEM (Gibco) supplemented with 1% Penicillin/Streptomycin/Glutamine (PSG) and 10% heat inactivated FBS (Invitrogen). SL13 cells were grown in DMEM (Gibco) supplemented with 1% PSG and 10% Tet system approved FBS (Clontech, #631107). Cells were treated with ATM inhibitor KU55933 (R&D Systems, #3544), ATR inhibitor VE821 (Selleckchem, #S8007) or PARP1 inhibitor Olaparib (Selleckchem, #1060) at indicated concentrations or DMSO as a control. For the ADDIT assay, SL13 cells were treated with final concentration 2 μg/ml of doxycycline for typically 48 hr or as indicated.
The original STELA protocol used for human cells (Baird et al., 2004, Hum Mol Genet 13, 1515-1524) was modified to measure telomere lengths on the cut end of chr4 in SL13 cells. Briefly, genomic DNA was extracted using Puregene Core Kit A™ (Qiagen). 4 μg of genomic DNA was digested with Sph1 (NEB) and later diluted to 10 ng/μl in water. For the in vitro IScerette sample, genomic DNA was digested with SphI and I-SceI (NEB) prior to ligation. The ligation was carried out at 35° C. for at least 12 hr in a volume of 10 μl containing 10 ng of digested genomic DNA, 0.9 μM of telorette linkers or IScerette linker and 0.5 U of T4 DNA ligase (NEB) in 1×T4 ligation buffer. […]

[2] = tested on: ATM; experiment: Western blot of ATM signaling (phospho-Kap1, phospho-ATM); format: cell-based, mouse
Description: To probe the role of ATM, the ADDIT assay was used in cells treated with the ATM specific inhibitor KU55933 (as described in Hickson et al., 2004, Cancer Research 64, 9152-9159) or with siRNA to ATM. To confirm the inhibition of ATM, the phosphorylation level was examined of the ATM substrate Kap1 and, as a control, an ATR kinase substrate Chk1 by western blot. Cultured cells were pretreated with KU55933, siA™ or DMSO control and then exposed to camptothecin (CPT), a DNA damaging agent.
To further probe the role of ATM in telomere length, ATM was activated in cultured cells. […] PARP is an essential enzyme involved in recognition and repair of DNA breaks. […] Similar to wild-type control, the most common class of telomere addition was Class 3 that creates the most complementarity between the 3′ end and the mTR sequence (Table 3). To examine whether this stimulation of telomere elongation acts through ATM, epistasis was examined by treating cells with both Olaparib and KU55933.
To detect phospho-proteins, 1× lysis buffer made of final concentration of 1×RIPA™ (Cell Signaling, #98016S), 1× protease inhibitor cocktail, 1× PhosSTOP™ (Roche, 4906845001) was added directly to cells on the dish after washing with PBS. Protein concentration was measured with a BCA protein assay kit (Thermo, #23227). Typically 10 μg of protein from each sample was applied to SDS-PAGE gels (Biorad, #456-1084) and transferred to nitrocellulose membranes in transfer buffer. After blocking with the Odyssey™ blocking buffer (LI-COR, #927-40000), membranes were incubated at 4° C. overnight or 1 hr at RT with the following primary antibodies: anti-phospho-Kap1 (Bethyl Lab, #A300-767A); anti-phospho-CHK1 (Cell Signaling, #2348S); anti-phospho-ATM (Millipore, #05-740); anti-HA (Santa Cruz, #sc-7392); anti-Actin (Santa Cruz, #sc-1616); anti-PAR (Trevigen, #4335-MC-100). […] Band intensities were quantified using the Odyssey™ software (LI-COR) and normalized to Actin levels. […]

[3] = tested on: tankyrases; conditions: in vitro assays; cited from earlier work

With `O=c1cc(-c2cccc3c2Sc2ccccc2S3)oc(N2CCOCC2)c1` [KU55933] the “de novo telomere addition / telomere elongation in ADDIT assay (in words)” value [1] was “significantly fewer telomere elongation products”, the “percentage of CCS reads with de novo telomere addition (mean and SEM)” value [1] was 12.45±1.16% and the Kap1-S824 phosphorylation ([2]; cells pretreated, then exposed to camptothecin (CPT)) was “blocked Kap1 phosphorylation”.
With `O=C(c1cc(Cc2n[nH]c(=O)c3ccccc23)ccc1F)N1CCN(C(=O)C2CC2)CC1` [Olaparib] the “de novo telomere addition / telomere elongation in ADDIT assay (in words)” value [1] was “small increase in telomere elongation”, the “percentage of CCS reads with de novo telomere addition (mean and SEM)” value [1] was 26% and 26.1±1.19% and the “phosphorylation of ATM-S1981” value ([2]; Olaparib-treated cells) was “increased phosphorylation of ATM-S1981”. The “Kap1 phosphorylation in response to PARP1 inhibition” value ([2]; compared to DMSO-treated control cells) was “increased ATM phosphorylation of Kap1; also recorded: increased level of Kap1 phosphorylation” and the effect on tankyrases [3] was “little effect on tankyrases”.

From patent publication US20180110777A1, “METHOD FOR REGULATION OF TELOMERE LENGTH” (The Johns Hopkins University, priority 2015, published 2018)
